Test results: patent publication EP0920487B1, “COMPOSITION AND METHOD FOR INHIBITING THE DEPOSITION OF PROTEIN ON CONTACT LENS” (BAUSCH & LOMB INCORPORATED, priority 1996, dated 1997)

Tested on: lysozyme
Assay: SPE protein-binding inhibition screening (Sep-Pak Accell Plus CM solid-phase extraction cartridge, absorbance of eluent at 280 nm)
Parameters: species or system hen
Conditions: test compound 1% in BBS; then 0.05% lysozyme; corrected for BBS control
Source text: In another aspect of the present invention, selected polyquaternium polymers simultaneously satisfy the dual requirements of both (i) meeting ophthalmological safety standards for an in-the-eye contact-lens solution at concentrations of 1000 ppm and (ii) inhibiting protein binding to a contact lens. The safety requirements can be determined according to the so-called NRDR (neutral red dye release) assay for cytotoxicity described in the Examples. In particular, the polyquaternium polymer should have an NRDR assay rating of L or less at a level of 1000 ppm., preferably L or less at a level of 500 ppm (dry weight of polymer, correcting for water content of the available polymer material). […] The material in this extraction cartridge is a weak cation exchanger that contains a silica support coated with a polymer having carboxymethyl groups. This extraction cartridge is first treated with a 1.0% solution of the polyquaternium polymer in borate-buffered saline followed by exposing the solid phase extraction cartridge to 0.05% lysozyme. The amount of protein-binding inhibition is determined compared to a control solution. […] Preferably, the SPE protein-binding inhibition is at least 20%, more preferably at least 30%, most preferably at least 35%.
This Experiment illustrates the measurement of the protein-displacing effects of various polyquaternium polymers. Among the polyquaternium polymers tested, the polymers varied with respect to the comonomers making up the polymer, the respective proportion of comonomers, and/or the molecular weight of the polymer. The following screening procedure was used. […] The absorbance measurements were conducted by (1) taking an initial absorbance with BBS in a 1 cm cuvette, which reading should be 0.000, re-autozeroing if necessary with BBS, (2) rinsing and filling the cuvette with 0.05% lysozyme solution and reading the absorbance to obtain the "maximum inhibition value', and (3) reading the absorbances for the solutions in the test tubes used to collect the eluents from the test cartridges. […]

| Substance | Average % SPE Binding Inhibition [%] |
| --- | --- |
| benzalkonium bromide [BAB] | 8 |
| benzalkonium chloride [BAK] | 3 |
| lauryl methyl gluceth-10 hydroxy-propyl dimonium chloride [Gluquat® 125] | 2 |
